The target in experiment [1] is Serine/threonine-protein kinase pim-1 (Homo sapiens, UniProt P11309). Kind of experiment: PIM-1 Biochemical Assay: The biochemical assay to measure PIM-1 activity relies on the ADP Hunter assay kit (DiscoveRx Corp., Cat. #90-0077), that determines the amount of ADP as direct product of the kinase enzyme activity.
Experiment [2] deals with Serine/threonine-protein kinase pim-2 (Homo sapiens, UniProt Q9P1W9). Kind of experiment: PIM-2 Biochemical Assay: The biochemical assay to measure PIM-2 activity relies on the ADP Hunter assay kit (DiscoveRx Corp., Cat. #90-0077), that determines the amount of ADP as direct product of the kinase enzyme activity.
Experiment [3] addresses Serine/threonine-protein kinase pim-3 (Homo sapiens, UniProt Q86V86). Kind of experiment: PIM-3 Biochemical Assay: The biochemical assay to measure PIM-3 activity relies on the ADP Hunter assay kit (DiscoveRx Corp., Cat. #90-0077), that determines the amount of ADP as direct product of the kinase enzyme activity.

8 compounds from ChEMBL document CHEMBL5725341, “Tricyclic compounds for use as kinase inhibitors” (2017) can be followed below.

Molecules are shown by their SMILES.

Sequence of Serine/threonine-protein kinase pim-2 (Q9P1W9 whole entry): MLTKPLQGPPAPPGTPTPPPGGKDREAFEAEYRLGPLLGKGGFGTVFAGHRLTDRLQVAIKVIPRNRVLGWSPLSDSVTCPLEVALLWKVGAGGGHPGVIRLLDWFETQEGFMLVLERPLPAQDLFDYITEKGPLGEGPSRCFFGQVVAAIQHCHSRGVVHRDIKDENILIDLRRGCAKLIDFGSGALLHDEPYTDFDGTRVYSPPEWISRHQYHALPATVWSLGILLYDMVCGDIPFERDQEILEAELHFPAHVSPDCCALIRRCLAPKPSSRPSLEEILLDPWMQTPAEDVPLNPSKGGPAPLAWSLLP
Sequence of Serine/threonine-protein kinase pim-1 (P11309 whole entry): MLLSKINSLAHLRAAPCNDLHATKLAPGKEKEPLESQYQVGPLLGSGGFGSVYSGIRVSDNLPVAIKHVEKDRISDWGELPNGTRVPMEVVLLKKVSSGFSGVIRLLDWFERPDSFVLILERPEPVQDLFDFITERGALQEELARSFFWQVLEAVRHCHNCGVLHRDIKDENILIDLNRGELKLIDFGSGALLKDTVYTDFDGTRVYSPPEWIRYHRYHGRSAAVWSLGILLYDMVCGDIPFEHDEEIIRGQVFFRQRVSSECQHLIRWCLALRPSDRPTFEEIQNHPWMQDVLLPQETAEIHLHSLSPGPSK

For `CN1CCOc2c(NCCN3CCOCC3)nn3c(-c4cccc(OC(F)(F)F)c4)nnc3c21`, the IC50 in experiment [1] and in experiment [2] was > 1000 nM each time.

With `CN1CCN(CCNc2nn3c(-c4cccc(OC(F)(F)F)c4)nnc3c3c2OCCN3C)CC1`, the IC50 in experiment [1] and in experiment [2] was > 1000 nM in each case.

In the case of `CN1CCOc2c1c(NCCN1CCOCC1)nn1c(-c3cccc(OC(F)(F)F)c3)nnc21`, the IC50 in experiment [1] is < 100 nM.

With `CN1CCOc2c1c(NCCc1cccnc1)nn1c(-c3cccc(OC(F)(F)F)c3)nnc21`, in experiment [1], the IC50 is < 100 nM.

Regarding `CN1CCOc2c1c(NCC13CCN(CC1)C3)nn1c(-c3cccc(OC(F)(F)F)c3)nnc21`, the values for the IC50 in experiment [1] and in experiment [2] were < 100 nM and > 1000 nM, respectively.

As for `CN1CCOc2c(N3CCC(N(C)C)CC3)nn3c(-c4cccc(OC(F)(F)F)c4)nnc3c21`, the IC50 in experiment [1] and in experiment [2] was > 1000 nM in each case.

With `CN1CCOc2c(NCCN3CCNCC3)nn3c(-c4cccc(OC(F)(F)F)c4)nnc3c21`, in experiment [2], the IC50 is > 1000 nM.

Regarding `CN1CCOc2c1c(NCC1CC3(CCNCC3)C1)nn1c(-c3cccc(OC(F)(F)F)c3)nnc21`, the IC50 in experiment [1] and in experiment [3] was < 100 nM throughout.
